Legend:
[1] = target: T1, PIP4K2A (Homo sapiens, UniProt P48426); assay: Kinase Assay-PIP4K2 A (ADP-Glo); format: biochemical
T1 construct: made in house; host or cells: E. coli
T1 sequence (P48426 1-406): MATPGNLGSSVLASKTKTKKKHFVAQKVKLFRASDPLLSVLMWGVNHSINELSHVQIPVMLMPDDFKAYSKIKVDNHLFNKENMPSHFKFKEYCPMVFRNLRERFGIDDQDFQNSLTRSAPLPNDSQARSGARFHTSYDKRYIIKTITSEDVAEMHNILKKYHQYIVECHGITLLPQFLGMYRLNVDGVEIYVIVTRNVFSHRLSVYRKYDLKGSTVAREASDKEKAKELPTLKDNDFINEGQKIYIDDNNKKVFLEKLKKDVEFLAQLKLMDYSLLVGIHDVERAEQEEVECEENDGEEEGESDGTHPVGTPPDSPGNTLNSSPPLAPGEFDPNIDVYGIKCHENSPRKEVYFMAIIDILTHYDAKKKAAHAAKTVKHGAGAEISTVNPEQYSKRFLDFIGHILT
Procedure: Dilution series of the compounds were prepared in DMSO at 100 times the final assay concentration (n1=n0/3 in 10 points). The compounds were further diluted to three times the assay concentration in assay buffer (20 mM MOPS pH 7.2, 25 mM magnesium chloride, 0.005% Tween 20). 6 μL of the diluted compounds were added to a 384 well assay plate followed by 9 μL of a mix consisting of 4 nM PIP4K2A (full length protein, SignalChem) and 100 μM PI(5)P diC8 (Tebu-Bio). Enzyme and compounds were pre-incubated at room temperature for 15 minutes.
Then 3 μL of a solution containing 60 μM ATP (Promega) in assay buffer was added to the wells containing compound and enzyme and mixing was performed by pipetting several times. The reaction was incubated at room temperature for 1 h. Then 18 μL of ADP-Glo™ Reagent (Promega) was added to stop the kinase reaction and deplete the unconsumed ATP, mixing was performed by pipetting several times. The plate was incubated at room temperature for 40 minutes before addition of 36 μL of Kinase Detection Reagent (Promega) to convert ADP to ATP and introduce luciferase and luciferin to detect ATP. The reaction was incubated at room temperature for 40 minutes before the luminescence was measured in a in a Victor 3V 1420 multilabel counter (Perkin Elmer).
Percent inhibition of the compounds as compared to dimethyl sulfoxide treated control samples was calculated. Compound concentration versus percent inhibition were fitted to generate IC50 values. […]

[2] = target: T2, PIP4K2 B (Homo sapiens, UniProt P78356); assay: Kinase Assay-PIP4K2 B (Transcreener FI); format: biochemical
T2 construct: made in house; host or cells: E. coli
T2 sequence (P78356 1-416): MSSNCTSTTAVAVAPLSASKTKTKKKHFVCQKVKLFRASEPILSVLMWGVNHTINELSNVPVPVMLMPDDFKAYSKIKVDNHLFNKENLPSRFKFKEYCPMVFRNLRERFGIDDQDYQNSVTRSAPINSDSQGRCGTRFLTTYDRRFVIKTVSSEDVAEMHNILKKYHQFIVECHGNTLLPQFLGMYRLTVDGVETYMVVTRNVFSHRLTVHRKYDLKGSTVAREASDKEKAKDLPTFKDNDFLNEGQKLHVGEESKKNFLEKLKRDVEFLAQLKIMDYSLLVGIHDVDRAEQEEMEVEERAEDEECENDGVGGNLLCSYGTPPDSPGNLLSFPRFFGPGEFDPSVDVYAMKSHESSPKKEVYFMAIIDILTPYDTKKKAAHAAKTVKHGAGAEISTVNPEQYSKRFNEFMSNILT
From the text: GST tagged PIP4KtypeIIA and B enzymes were overexpressed in E. Coli and purified to >80% homogeneity. Phosphatidyl inositol-5-phosphate (PI5P, Cat. #850152, Avanti Polar Lipids Inc.) was used as the lipid substrate and phosphatidyl ethanolamine (DOPE 18:1, Cat. #850725, Avanti Polar Lipids Inc.) was used as the carrier lipid for assays. Ultrapure ATP and GTP was purchased from Bellbrooke Labs. ADP Glo reagents were obtained from Promega. Transcreener FI reagent was obtained from Bellbrooke labs.
• 1. HEPES buffer mix: 200 mM HEPES pH 7.4, 50 mM MgCl2, 0.05% v/v triton X 100 • 2. HNE buffer: 20 mM HEPES, pH 7.4, 100 mM NaCl, 0.5 mM EGTA • 3. H:E buffer: 30 mM HEPES, pH 7.4, 1 mM EGTA
GST-tagged PIP4KtypeIIB (3.4 μl, 2.77 mg/mL) was diluted to 5 mL using HNE buffer to yield 5× enzyme stock (25 nM)
Lipid Preparation: In a 10 mL pyrex glass vial, […] were suspended in 2.5 mL of HEPES buffer mix and 2.5 mL of H:E buffer. The contents were mixed and sonicated for 3 min to yield a translucent lipid stock.
Compound Preparation: Compounds were stored as 5 mM stocks in neat DMSO as room temperature in glass vials. 5 mM stocks were diluted to 2 mM and then serially diluted (3×) in neat DMSO in 96 well polypropylene plates. From the serially diluted stocks, 3 μL was delivered into 250 μL of 25% DMSO (in water) to generate 5× compound stocks. Typically, the highest compound conc. was 24 μM.
The assay volume was kept at 25 μL. To each well of the reaction plate, 10 μL of lipid stock (1:1 ratio PI5P:DOPE) was delivered. This was followed by the addition of 5 μL of compound in 25% DMSO. Then, to each well, 5 μL of 25 nM (5×) typeIIB enzyme was delivered. The contents were mixed well and incubated for 1 h at 27° C. After 1 h, reaction was initiated by adding 5 μL of 500 μM GTP and the contents were mixed well with a multi-channel pipetteman. The final concentration of the reagents are as follows: 50 mM HEPES, pH 7.3, 10 mM MgCl2, 20 mM NaCl, 0.01% v/v triton-X100, 5% DMSO, 100 μM GTP, 80 μM (2 μg) PI5P, 2 μg DOPE, and 5 nM PIP4KIIB Typically, the highest conc. of compounds was 4.8 μM and the lowest conc. was 0.
After 2 h, the reaction was quenched by adding 25 μL of transcreener FI reagent. The contents were incubated at rt for 1 h and the Fluorescence (Ex: 584 Em: 623) was read using Molecular Devices Paradigm plate reader. […] The blanks were averaged and subtracted from all other wells. Using a calibration curve, RFU was converted to μM GDP (product). IC50 was calculated by plotting the residual activity (expressed as % No inhibitor control) vs. log [Inh. conc.].

[3] = test system: MOLM-16; assay: MOLM-16 EC50 assay; format: cell-based; settings: MOLM16

Compound | IC50 [1] | IC50 [2] | EC50 [3]
C=C(C)c1cc(Nc2cnc3c(c2)N2C(=O)CC[C@H]2CO3)ncc1-c1ccc(-c2nncn2C)cc1 [Compound 8, (6S)-12-({5-[4-(4-methyl-4H-1,2,4-triazol-3-yl)phenyl]-4-(prop-1-en-2-yl)pyridin-2-yl}amino)-8-oxa-2,10-diazatricyclo[7.4.0.0^2,6]trideca-1(13),9,11-trien-3-one] | 1 to 10 nM | 1 to 10 nM | > 1000 nM
COc1nc(Nc2cnc3c(c2)N(C(=O)OCCN(C)C)CCO3)ncc1-c1ccc(C(=O)N(C)C)cc1 [Compound 15, 2-(dimethylamino)ethyl 7-({5-[4-(dimethylcarbamoyl)phenyl]-4-methoxypyrimidin-2-yl}amino)-1H,2H,3H-pyrido[2,3-b][1,4]oxazine-1-carboxylate] | 1 to 10 nM | 1 to 10 nM | 100 to 1000 nM
COc1nc(Nc2cncc(N3CCC(N(C)C)CC3)c2)ncc1-c1ccc(N2CCCC2=O)cc1 [Compound 16, 1-{4-[2-({5-[4-(dimethylamino)piperidin-1-yl]pyridin-3-yl}amino)-4-methoxypyrimidin-5-yl]phenyl}pyrrolidin-2-one] | 10 to 100 nM | 10 to 100 nM | 10 to 100 nM
O=C1CCCN1c1ccc(-c2cnc(Nc3cnc4c(c3)N3C(=O)CC[C@H]3CO4)nc2CC2(O)COC2)cc1F [Compound 21, (6S)-12-({5-[3-fluoro-4-(2-oxopyrrolidin-1-yl)phenyl]-4-[(3-hydroxyoxetan-3-yl)methyl]pyrimidin-2-yl}amino)-8-oxa-2,10-diazatricyclo[7.4.0.0^2,6]trideca-1(9),10,12-trien-3-one] | 10 to 100 nM | 10 to 100 nM | > 1000 nM
CCN(CC)CCN1CCOc2ncc(Nc3ncc(-c4ccc(N5CCCC5=O)cc4)c(OC)n3)cc21 [Compound 26, 1-{4-[2-({1-[2-(diethylamino)ethyl]-1H,2H,3H-pyrido[2,3-b][1,4]oxazin-7-yl}amino)-4-methoxypyrimidin-5-yl]phenyl}pyrrolidin-2-one] | 100 to 1000 nM | 100 to 1000 nM | 100 to 1000 nM
COc1nc(Nc2cncc(N3CC[C@@H](N(C)C)C3)c2)ncc1-c1ccc(N2CCCC2=O)cc1 [Compound 35, 1-{4-[2-({5-[(3R)-3-(dimethylamino)pyrrolidin-1-yl]pyridin-3-yl}amino)-4-methoxypyrimidin-5-yl]phenyl}pyrrolidin-2-one] | 100 to 1000 nM | 100 to 1000 nM | 10 to 100 nM

Next, values leading:

IC50 [1] | IC50 [2] | EC50 [3] | Compound
1 to 10 nM | 1 to 10 nM | 100 to 1000 nM | CC1(C#N)CN(c2nc(Nc3cnc4c(c3)N3C(=O)CC[C@H]3CO4)ncc2-c2ccc(N3CCCC3=O)cc2)C1 [Compound 10, 3-methyl-1-(2-{[(6S)-3-oxo-8-oxa-2,10-diazatricyclo[7.4.0.0^2,6]trideca-1(13),9,11-trien-12-yl]amino}-5-[4-(2-oxopyrrolidin-1-yl)phenyl]pyrimidin-4-yl)azetidine-3-carbonitrile]
1 to 10 nM | 1 to 10 nM | 100 to 1000 nM | CN(c1nc(Nc2cnc3c(c2)OCCO3)ncc1-c1ccc(N2CCCC2=O)cc1)[C@H]1C[C@H](O)C1 [Compound 12, 1-{4-[2-({2H,3H-[1,4]dioxino[2,3-b]pyridin-7-yl}amino)-4-{methyl[(1r,3r)-3-hydroxycyclobutyl]amino}pyrimidin-5-yl]phenyl}pyrrolidin-2-one]
1 to 10 nM | 1 to 10 nM | 100 to 1000 nM | Cc1cnnn1-c1ccc(-c2cnc(Nc3cnc4c(c3)N(C(=O)OCCN(C)C)CCO4)nc2)cc1 [Compound 13, 2-(dimethylamino)ethyl 7-({5-[4-(5-methyl-1H-1,2,3-triazol-1-yl)phenyl]pyrimidin-2-yl}amino)-1H,2H,3H-pyrido[2,3-b][1,4]oxazine-1-carboxylate]
1 to 10 nM | 1 to 10 nM | > 1000 nM | O=C1CCCN1c1ccc(-c2cnc(Nc3cnc4c(c3)N3C(=O)CC[C@H]3CO4)nc2C(F)(F)F)cc1 [Compound 14, (6S)-12-({5-[4-(2-oxopyrrolidin-1-yl)phenyl]-4-(trifluoromethyl)pyrimidin-2-yl}amino)-8-oxa-2,10-diazatricyclo[7.4.0.0^2,6]trideca-1(9),10,12-trien-3-one]
10 to 100 nM | 100 to 1000 nM | > 1000 nM | CN(C)C(=O)c1ccc(-c2cnc(Nc3cnc4c(c3)OCCO4)nc2N(C)[C@H]2C[C@@H](O)C2)cc1 [Compound 18, 4-[2-({2H,3H-[1,4]dioxino[2,3-b]pyridin-7-yl}amino)-4-{methyl[(1s,3s)-3-hydroxycyclobutyl]amino}pyrimidin-5-yl]-N,N-dimethylbenzamide]
10 to 100 nM | 10 to 100 nM | 10 to 100 nM | COc1nc(Nc2cnc3c(c2)N(C(=O)CN(C)C)CCO3)ncc1-c1ccc(N2CCCC2=O)cc1 [Compound 19, 1-{4-[2-({1-[2-(dimethylamino)acetyl]-1H,2H,3H-pyrido[2,3-b][1,4]oxazin-7-yl}amino)-4-methoxypyrimidin-5-yl]phenyl}pyrrolidin-2-one]
10 to 100 nM | 10 to 100 nM | 100 to 1000 nM | Cc1cnnn1-c1ccc(-c2cnc(Nc3cnc4c(c3)N(C(=O)CN(C)C)CCO4)nc2)cc1 [Compound 20, 2-(dimethylamino)-1-[7-({5-[4-(5-methyl-1H-1,2,3-triazol-1-yl)phenyl]pyrimidin-2-yl}amino)-1H,2H,3H-pyrido[2,3-b][1,4]oxazin-1-yl]ethan-1-one]
10 to 100 nM | 10 to 100 nM | 10 to 100 nM | COc1nc(Nc2cncc(N3CC[C@@H](N(C)C)C3)c2)ncc1-c1ccc(-c2nnccc2C)cc1 [Compound 34, N-{5-[(3R)-3-(dimethylamino)pyrrolidin-1-yl]pyridin-3-yl}-4-methoxy-5-[4-(4-methylpyridazin-3-yl)phenyl]pyrimidin-2-amine]
